Here are results for four molecules from patent publication US8278298B2, “Inhibition of tau-tau-association” (Wista Laboratories Ltd., priority 1995, dated 2012).

For data set [1], the target named is T1, tau-tau binding (truncated core tau unit of the PHF / full-length tau T40) (Homo sapiens, UniProt P10636).
T1 construct: the truncated core tau unit terminating at Ala-390 (“a”); made in house; host or cells: E. coli BL21 (DE3), plasmid pRK172
The data set can be described thus: Tau-tau binding assay (truncated core tau unit in solid phase, tau in aqueous phase). The following applies: for Ki: standard competitive inhibition model. From the text: Particularly preferred is the following configuration for tau-tau binding assays (FIG. 10): A tau fragment, preferably a recombinant tau fragment, corresponding to the truncated tau unit of the core PHF is bound to a solid phase, e.g. a conventional ELISA plate, in buffer conditions which have been shown not to favour tau-tau association. […] The solid phase is usually poly(vinyl-chloride), but may be other polymers such as cellulose, polyacrylamide, nylon, polystyrene or polypropylene. The solid supports may be in the form of tubes, beads, discs or micro plates, or any other surfaces suitable for conducting an assay, and which on passive binding of tau protein, exposes the high affinity tau capture site. Following binding, the solid phase-antibody complex is washed in preparation for the test sample.
Next, a truncated unit terminating at Glu-391 was incubated. Only the lafter could be detected as mAb 423 immunoreactivity. […] Therefore plating of the core tau unit for passive binding to solid phase matrix was carried out in this buffer. If desired, a depolymerised tubulin preparation or a preparation of microtubules in the same buffer can be plated for passive binding for determination of tau-tubulin binding. Suitable agents for blocking excess binding sites are milk extract, bovine serum albumin, gelatine, etc. […]
FIG. 8: Tau binding assay configuration in which binding of two truncated units is measured. […]
FIG. 10: Standard configuration for measurement of binding of full-length tau (“t”) to the truncated core tau unit previously bound passively to the solid phase (“a”). […] Binding is detected by an appropriate antibody, which recognises an epitope located near the N-terminus of full-length tau.
(§1) FIG. 20: Selective inhibition of tau-tau-binding by thionine. […] The Ki values were calculated using the Kd values obtained from the corresponding binding studies using full-length tau. […]
The assay is carried out in a 96-well PVC microtitre plate, with solutions added and readings taken with respect to individual wells: […]

Data set [2] addresses tau-tubulin binding (depolymerised tubulin coated, tau incubated) (Homo sapiens, UniProt P10636). Nature of the data set: Tau-tubulin binding assay. Conditions: read-out: Ki for inhibition of the tau-tubulin binding interaction in vitro. The method, then: A method of determining any possible interference, i.e. binding of tau or a derivative thereof to tubulin molecules, comprises contacting a depolymerised tubulin preparation, or preparation of taxol-stabilised microtubules with an agent suspected of being capable of modulating or inhibiting pathological tau-tau association and a tau compound mentioned in above step c) followed by detection of the tau-tubulin binding.
Next, a truncated unit terminating at Glu-391 was incubated. Only the lafter could be detected as mAb 423 immunoreactivity. […] Therefore plating of the core tau unit for passive binding to solid phase matrix was carried out in this buffer. If desired, a depolymerised tubulin preparation or a preparation of microtubules in the same buffer can be plated for passive binding for determination of tau-tubulin binding. Suitable agents for blocking excess binding sites are milk extract, bovine serum albumin, gelatine, etc. […] No binding of full-length tau was seen without prior plating of the core tau unit in the solid phase. When both species were present, binding was seen to depend on concentration of both species. […]
as §1

Data set [3] concerns tau/MAP2 binding interaction (foetal MAP2C). Nature of the data set: Tau/MAP2 binding in the standard binding assay. The following applies: truncated tau/MAP2C and MAP2C/full-length tau configurations. From the text: One possible explanation for the lack of MAP2 in PHFs might be that MAP2 in PHFs might be MAP2 is unable to bind to the core tau unit of the PHF because of sequence differences in the repeat regions. This was examined experimentally using the standard binding assay in two configurations: truncated tau in the solid phase with foetal MAP2C in the aqueous phase, and MAP2C in the solid phase with full-length tau in the aqueous phase. […] Thus, aggregation in the tandem-repeat region is not selective for tau, and the inhibitory activity of phenothiazine inhibitors such as thionine is not dependent on sequences unique to tau. The reason why MAP2 is not found in PHFs is at present unknown, but factors may include the contribution of the large N-terminal domain found in the adult form of MAP2, compartment differences within the cell, or other differences in processing of the MAP2 molecules.

Data set [4] relates to 3T3 cells. Nature of the data set: Toxicity of inhibitors in 3T3 cells. In kind it is cell-based, mouse. The method, then:
(§2) Mouse fibroblast 3T3 cells were transfected with a eukaryotic expression vector (pIF2) containing full-length and truncated forms of tau protein under constitutive control by a β-globin promotor. This vector contains a neomycin resistance gene as a selectable marker (pSV2neo; Sambrook et al. (1989), loc. cit.; modified by M. N. Neuberger). Cells were cultured in […] (DMEM) containing antimicrobial agents and 10% foetal calf serum at 37° C. in an atmosphere of 5% CO2. They were transfected with plasmid DNA either using a standard calcium phosphate protocol or by lipofection (according to manufacturers protocol; Gibco BRL). Cells which had integrated the plasmid DNA were selected by viability in medium containing Geneticin (0.5 mg/ml; Southern and Berg (1982), J. Mol. Appl. Genet. 1, 327).
The toxicity of the truncated core tau unit might be reversible in part if the prototype phenothiazine inhibitors could be used to block self-aggregation in vivo. This would be feasible only if the compounds were not intrinsically toxic at concentrations needed to block tau-tau binding. […] In practice, 3T3 cells could be grown several month in the presence of 2 μM thionine.

Data set [5] concerns 3T3 fibroblast transfected with full-length tau protein. Nature of the data set: Cytoskeletal distribution of tau in 3T3 fibroblasts transfected with full-length tau. In kind it is cell-based, mouse. On the procedure:
as §2
The influence of thionine on the tau-tubulin binding interaction was examined in vivo by culturing 3T3 fibroblast transfected with full-length tau protein in the presence of thionine at a range of concentrations.

Data set [6] deals with 3T3 cells transfected with truncated tau. The data set can be described thus: Viability of 3T3 cells transfected with truncated tau. Conditions: grown in higher concentrations of thionine. In kind it is cell-based, mouse. On the procedure:
as §2
The number of viable cell lines transfected with truncated tau increased when the cells were grown in the presence of higher concentrations of thionine.

For data set [7], the system named is 3T3 cells transfected with PIF2::T40. The data set can be described thus: Lipofectin/tau protein transfer into 3T3 cells expressing full-length tau. The class given is cell-based, mouse. The following applies: truncated tau transferred via lipofectin, all three concentrations of truncated tau; thionine 1 μM. On the procedure: FIG. 30: Lipofectin/tau protein transfers into 3T3 cells transfected with PIF2::T40. Relative cell survival (normalised to cell counts after Lipofectin treatment without protein) is shown for approximately equimolar concentrations of full-length (T40, 220 nM) and truncated tau (dGAE, 300 nM), without (unshaded) or with shaded) thionine at 1 μM. Truncated tau is more toxic than full-length tau (p=0.02), despite the fact that at equimolar concentrations, the total protein load is 5× greater in the case of full-length tau.
FIGS. 31A and 31B: (FIG. 31A) Reversal of truncated tau toxicity: The toxicity of truncated tau transferred via lipofectin into 3T3 cells expressing full-length tau is concentration dependent. […] (FIG. 31B) Similar experiment in which full-length tau was transferred via lipofectin into 3T3 cells expressing full-length. Both toxicity and thionine effects were much less apparent.

Data set [8] concerns PC-12 cells. The data set can be described thus: pNFH aggregates and neurite incorporation in PC-12 cells. The class given is cell-based. Conditions: for Frequency of cells with pNFH aggregates: after db-cAMP, with thionine. The method, then:
(§3) Neuronal cell lines (N2A, NIE-115) were cultured in DMEM containing 2% or 10% foetal calf serum and 5% horse serum on tissue culture plates coated with collagen. These were all grown at 37° C. in an atmosphere containing 5% CO2. Initial immunohistochemical studies of neuronal cell lines prior to transfection led to the identification of cytoplasmic aggregates immunoreactive with mAb 423 forming in the cytoplasm of undifferentiated neuroblastoma cells (N2A cells) and in PC-12 cells after brief treatment with dibutyryl-cAMP (db-cAMP, known to differentiate neuroblastoma cells in tissue culture). […] In the course of differentiation, this endogenous mAb 423 immunoreactivity was seen to shift from the cytoplasm to neurites. Immunoprecipitation of mAb423 immunoreactivity from these cells led to the identification of a species with gel mobility of 230 kDa which was recognised by SMI-31. […] We refer to them as presumptive-NFH aggregates (pNFH).
PC-12 cells were transfected with the pIF2 vector containing either the PHF-core tau fragment truncated at Glu-391 or full-length tau protein. As with 3T3 fibroblasts, no viable cell lines transfected with truncated tau were produced unless cells were grown in thionine following transfection. Once stahilised, transfected cell lines were analysed in the presence or absence of db-cAMP and in the presence and absence of thionine. Two end-points were examined: formation of cytoplasmic pNPH aggregates, and distribution of pNFH immunoreactivity into neurites.

Data set [9] deals with NIE-115 cells. The data set can be described thus: pNFH aggregates and neurite incorporation in NIE-115 cells. The class given is cell-based. On the procedure:
as §3
Rather, pNFH immunoreactivity was normally incorporated into growing neurites during the course of differentiation, although an early perinuclear-arc stage was also seen. NIE cells were transfected as above with the pIF2 vector containing either full-length or truncated tau protein and grown in the presence of thionine. The effects of adding db-cAMP in the presence or absence of thionine were then examined.

The test system of data set [10] is neuronal cell lines. The data set can be described thus: Toxicity for neuronal cell lines. In kind it is cell-based. Conditions: concentrations up to 2 μM.
For data set [11] the following is noted: systemic administration; cited from earlier work.

“Also recorded” adds a separate entry of the source.

T1 sequence (P10636 614-707 limits assumed): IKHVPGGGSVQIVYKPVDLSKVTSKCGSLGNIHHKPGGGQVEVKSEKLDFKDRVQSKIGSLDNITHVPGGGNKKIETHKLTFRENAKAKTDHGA
Sequence of tau-tubulin binding (depolymerised tubulin coated, tau incubated) (P10636 1-441 isoform P10636-8): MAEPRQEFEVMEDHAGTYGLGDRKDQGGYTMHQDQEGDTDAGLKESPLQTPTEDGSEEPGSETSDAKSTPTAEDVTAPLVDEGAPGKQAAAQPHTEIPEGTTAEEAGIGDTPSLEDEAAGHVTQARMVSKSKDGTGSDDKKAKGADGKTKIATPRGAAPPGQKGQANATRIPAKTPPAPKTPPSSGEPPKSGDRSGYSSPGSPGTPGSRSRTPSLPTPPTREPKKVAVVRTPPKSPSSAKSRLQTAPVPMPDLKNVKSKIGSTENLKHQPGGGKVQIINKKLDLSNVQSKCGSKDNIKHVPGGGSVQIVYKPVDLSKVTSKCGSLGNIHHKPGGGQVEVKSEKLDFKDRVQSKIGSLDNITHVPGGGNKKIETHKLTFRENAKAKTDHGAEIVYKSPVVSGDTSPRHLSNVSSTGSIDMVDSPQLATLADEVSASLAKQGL

On to POTr: fetal rat tau, for which the “Binding to the core tau unit” value in [1] (introduced in the aqueous phase) was “incapable of pathological binding”.

Consider thionine, for which the Ki – broadly, a measure of affinity in units of concentration, obtained from inhibition or displacement – in data set [1] is 100 nM; in [2] it was 8000 nM. Besides, in data set [3], the “Effect on tau/MAP2 binding interaction” value was “blocked”. Also, the “Toxicity in 3T3 cells / fibroblasts” value in [4] was “lowest toxicity; also recorded: does not appear to have substantial intrinsic toxicity”. For the same molecule, the “Concentration at which 3T3 cells could be grown several months” value in [4] (prolonged culture) came out at 2000 nM. Also, the “Concentration causing disruption of normal cytoskeletal distribution of tau immunoreactivity” value in data set [5] fell in the range of 4 to 8 µM. For the same molecule, in [5] (concentration range 0.5-2 μM), the “Effect on cytoskeletal distribution of tau” value is listed as “no effect”. In addition, in data set [6], the “Number of viable cell lines transfected with truncated tau” value was “increased”. Also, the “Reversal of truncated tau toxicity” value in data set [7] is given as “significantly reversed toxicity”. In addition, the pNFH-neurite index is listed as 0.49 in [8] (PC-12 cells transfected with truncated tau, with thionine (0.04 without)) and 0.1 in data set [9] (NIE-ND1, after db-cAMP, with thionine as printed (0.66 without)). The figures for the “Frequency of cells with pNFH aggregates” value in data set [8] (all transfected cells (49% after withdrawal)), in [8] (cells transfected with full-length tau (32% after withdrawal)) and in data set [8] (cells transfected with truncated tau (60% after withdrawal)) were 27%, 16% and 36%, respectively. Also, in data set [8] (untransfected PC-12 cells), the “Inhibition of pNFH aggregates in the cytoplasm” value was “Dose-dependent inhibition”. For the same molecule, the “Proportion of cells containing pNFH aggregates” value in data set [9] (NIE-ND6, transfected with truncated tau, with thionine (44% after withdrawal)) is 14%; in data set [9] (cells transfected with full-length tau, with thionine (16% after withdrawal)), 7%. The “Incorporation of transgenic tau protein into the microtubular cytoskeleton” value in data set [9] (cells transfected with full-length tau) is “did not interfere”. Moreover, the “Toxicity for neuronal cell lines” value in data set [10] was “not toxic”.

The molecule acriflavin [reference compound] had a Ki in [1] of 100 nM. For the same molecule, the “Toxicity in 3T3 cells / fibroblasts” value in data set [4] is given as “lowest toxicity”.

Take `CN(C)c1ccc2nc3ccc(=[N+](C)C)cc-3sc2c1` [methylene blue]: the CNS penetration entry in data set [11] is on record as “CNS penetration following systemic administration has been described”.
